The target of experiment [1] is T1, Tyrosinase (Agaricus bisporus, UniProt O42713).
T1 sequence (O42713 whole entry): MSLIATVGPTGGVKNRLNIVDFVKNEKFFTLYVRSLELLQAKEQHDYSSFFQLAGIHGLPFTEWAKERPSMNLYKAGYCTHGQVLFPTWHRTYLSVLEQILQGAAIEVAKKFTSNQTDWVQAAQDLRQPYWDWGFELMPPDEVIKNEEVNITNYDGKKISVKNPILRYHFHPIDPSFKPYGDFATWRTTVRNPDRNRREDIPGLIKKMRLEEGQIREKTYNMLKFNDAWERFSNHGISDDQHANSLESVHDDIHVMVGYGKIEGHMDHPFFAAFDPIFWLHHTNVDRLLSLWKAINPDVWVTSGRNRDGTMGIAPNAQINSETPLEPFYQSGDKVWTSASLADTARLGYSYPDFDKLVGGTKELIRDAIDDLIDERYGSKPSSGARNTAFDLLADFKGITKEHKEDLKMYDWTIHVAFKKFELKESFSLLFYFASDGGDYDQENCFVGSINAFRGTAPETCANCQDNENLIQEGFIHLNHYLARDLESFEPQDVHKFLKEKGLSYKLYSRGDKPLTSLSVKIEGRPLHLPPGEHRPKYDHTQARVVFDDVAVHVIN
Description: (§1) Inhibition of mushroom tyrosinase after 90 mins

Experiment [2] concerns the target T1, Tyrosinase. The source holds these as a separate data set.
Description: (§2) Inhibition of mushroom tyrosinase after 30 mins
The subject of experiment [3] is Radical scavenging activity.
Description: Antioxidant activity assessed as DPPH free radical scavenging activity after 30 mins
Experiment [4] addresses T1, Tyrosinase. This is another data set of the same source.
Description: as §2
Experiment [5] addresses T1, Tyrosinase. This is another data set of the same source.
Description: as §1

Broadly, the IC50 is the concentration that gives 50% inhibition. Low readings indicate higher potency, high ones lower potency. For `O=c1cc(-c2ccc(O)cc2)oc2cc(O)cc(O)c12` [APIGENIN], the figures for the IC50 in experiment [1], in experiment [2] and in experiment [3] were 305 µM, 305 µM and “Not Active”, respectively.
Take `CC1(C)CCC[C@]2(C)[C@@H]1C(=O)[C@@H](O)[C@@]13C[C@H](CC[C@@H]21)[C@@](O)(CO)C3` [BROUSSONETONE A]: the IC50 was 322 µM in experiment [1], 336 µM in experiment [2] and “Not Active” in experiment [3].
For `CC1(C)OC[C@]2(C[C@]34C[C@@H]2CC[C@H]3[C@]2(C)CCCC(C)(C)[C@H]2C(=O)[C@H]4O)O1` [BROUSSONETONE C] the same measures were 323 µM, 353 µM and “Not Active”.
In the case of `CC1(C)CCC[C@]2(C)[C@@H]1C(=O)[C@H](O)[C@@]13C[C@H](CC[C@@H]21)[C@@](O)(CO)C3` [BROUSSONETONE B], the results for the IC50 in experiment [1], in experiment [4] and in experiment [3] were 317 µM, “Not Active” and “Not Active”, respectively.
`COc1ccc(O)c(C(C)(C)C)c1.COc1ccc(O)cc1C(C)(C)C` [BUTYLATED HYDROXYANISOLE] gave an IC50 in experiment [3] of 79.2 µM.
`O=c1cc(-c2ccc(O)cc2)oc2c([C@@H]3O[C@H](CO)[C@@H](O)[C@H](O)[C@H]3O)c(O)cc(O)c12` [VITEXIN]: the IC50 entry in experiment [5], in experiment [4] and in experiment [3] was “Not Active” each time.

The record behind these values is ChEMBL document CHEMBL1154147, “Antityrosinase and antioxidant effects of ent-kaurane diterpenes from leaves of Broussonetia papyrifera” (J Nat Prod, 2008).
